Measured values as given in patent publication US20260174769A1, “MACROCYCLIC COMPOUNDS AND METHODS OF USE” (AMGEN INC., priority 2022, published 2026).
Counter-ions that a name gives are not always drawn. Like-named read-outs stand apart in the source and are kept apart here.

Experiments:
[1] = target: His-tagged KRAS G12D protein (Homo sapiens, UniProt P01116, G12D); assay: KRAS G12D TR-FRET Assay; format: binding
Outline: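 GDP-loaded His-KRAS G12D (20 nM in HEPES pH 7.4, MgCl2, NaCl, BSA, Tween-20, 10 μM GDP) preincubated with compound 30 min at room temperature, then 20 nM biotinylated KRPep-2d peptide added for 1 h. TR-FRET detection used Eu anti-His and streptavidin-d2, read after 1 h.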

[2] = target: GDP-bound KRAS protein (aa 1-169), containing both G12D and C118A amino acid substitutions (Homo sapiens, UniProt P01116, C118A/G12D); assay: KRAS G12D Coupled Nucleotide Exchange Assay; format: biochemical
Experimental: KRAS G12D Coupled Nucleotide Exchange Assay
The assay plates were then read on a PerkinElmer En Vision Multilabel Reader, using AlphaScreen® technology, and data were analyzed using a 4-parameter logistic model to calculate IC50 values.

[3] = tested on: Phosphorylation of ERK1/2 in AsPC-1 cells; assay: Phospho-ERK1/2 MSD Assay; format: cell-based, human; conditions: read-out: 2 h p-ERK (AsPC-1 cells), IC50
Experimental: Sixteen hours prior to compound treatment, AsPC-1 cells were seeded in 96-well cell culture plates at a density of 25,000 cells/well and incubated at 37° C., 5% CO2. A compound dose-response titration was diluted in growth media, added to appropriate wells of a cell culture plate, and then incubated at 37° C., 5% CO2 for 2 hours. […] Phosphorylation of ERK1/2 in compound-treated lysates was assayed using Phospho-ERK 1/2 Whole Cell Lysate kits (Meso Scale Discovery K151DWD) according to the manufacturer's protocol. Assay plates were read on a Meso Scale Discovery Sector Imager 6000, and data were analyzed using a 4-parameter logistic model to calculate IC50 values.

AsPC-1 cells = assay: AsPC-1 CTG Assay (CellTiter-Glo cell viability, 72 h); format: cell-based, human; conditions: Homo sapiens, ASPC1, 72 h, AsPC-1 cells, 72 h, read-out: G12D/C/V Cell Proliferation CTG (72 h) AsPC-1
Experimental: AsPC-1 and SW620 CTG Assay Protocols
Serially-diluted compound or DMSO was added to the cells, and plates were incubated at 37° C., 5% CO2 for 72 h. Cell viability was measured using a CellTiter-Glo® Luminescent Cell Viability Assay kit (Promega) according to the manufacturer's protocol. The luminescence signal of treated samples was normalized to DMSO control, and data were analyzed using a 4-parameter logistic model to calculate IC50 values.

[4] = 2 hours compound pre-incubation, SOS-mediated nucleotide exchange
[5] = Homo sapiens, ASPC1, 2 h, AsPC-1 cells, 2 h compound treatment
[6] = read-out: KRAS G12D Binding IC50
[7] = TR-FRET, read-out: KRAS G12D Binding IC50
[8] = Homo sapiens, ASPC1, 2 h, AsPC-1 cells, 2 h

Compound | IC50 ([1]; TR-FRET binding) | IC50 [2, 4] | further results
Cc1cc2[nH]ncc2c2c1CCCCCCC1(O)CCCN(C1)c1nc(OC[C@@]34CCCN3C[C@H](F)C4)nc3c(F)c-2ncc13 (mixture of isomers) [Example 44] | 0.16 µM | 0.266 µM | 
O[C@@H]1C[C@H]2COCCCCc3c(Cl)cc4[nH]ncc4c3-c3ncc4c(nc(OC[C@@]56CCCN5C[C@H](F)C6)nc4c3F)N(C1)C2 (mixture of isomers) [Example 408, 2,2,2-trifluoroacetate salt] |  |  | IC50 [1, 6]: 0.024 µM; IC50 [2]: 0.018 µM; IC50 [3]: 0.0524 µM
O[C@H]1C[C@@H]2CN(C1)c1nc(OC[C@@]34CCCN3C[C@H](F)C4)nc3c(F)c(ncc13)-c1c(c(Cl)cc3[nH]ncc13)CCCc1nc2no1 (racemic) [Example 377, (rac-18R,20S)-9-chloro-31-fluoro-25-(((2R,7a.S)-2-fluorotetrahydro-1H-pyrrolo[1,2-a]pyrrol-7a(5H)-yl)methoxy)-15-oxa-5,6,16,22,24,26,30,33-octaazaheptacyclo[25.3.1.1~14,17~.1~18,22~.0~2,10~0~3.7~.0~23,28~]tritriaconta-1(31),2,4,7,9,14(33),16,23,25,27,29-undecaen-20-ol] |  |  | IC50 [1, 7]: 0.005 µM; IC50 [3, 8]: 0.0099 µM; IC50 (AsPC-1 cells; first value of the cell): 0.125 µM
O=C1N[C@@H]2C[C@H](O)CN(C2)c2nc(OC[C@@]34CCCN3C[C@H](F)C4)nc3c(F)c(ncc23)-c2c(c(Cl)cc3[nH]ncc23)CCCO1 (single isomer, unassigned) [Example 284] | 0.005 µM | 0.002 µM | 
CN1C(=O)OCCCc2c(Cl)cc3[nH]ncc3c2-c2ncc3c(nc(OC[C@@]45CCCN4C[C@H](F)C5)nc3c2F)N2C[C@H](O)C[C@H]1C2 (single isomer, unassigned) [Example 287] | 1.23 µM | 0.376 µM | 
O=C1OCCc2c(Cl)cc3[nH]ncc3c2-c2ncc3c(nc(OC[C@@]45CCCN4C[C@H](F)C5)nc3c2F)N2CCC[C@@]3(C[C@H](CO3)O1)C2 (single isomer, unassigned) [Example 314] | 0.021 µM | 0.011 µM | 
O=C1OCCc2c(Cl)cc3[nH]ncc3c2-c2ncc3c(nc(OC[C@@]45CCCN4C[C@H](F)C5)nc3c2F)N2CCC[C@]3(C[C@@H](CO3)O1)C2 (single isomer, unassigned) [Example 315] | 0.003 µM | 0.002 µM | 
Cc1cc2[nH]ncc2c2c1CCCCC(=O)O[C@@H]1CCCN(C1)c1nc(OC[C@@]34CCCN3C[C@H](F)C4)nc3c(F)c-2ncc13 [Example 31, (17R)-30-Fluoro-24-(((2R,7aS)-2-fluorotetrahydro-1H-pyrrolo[1,2-a]pyrrol-7a(5H)-yl)methoxy)-9-methyl-16-oxa-5,6,21,23,25,29-hexaazahexacyclo[24.3.1.1˜17,21˜.0˜2,10˜.0˜3,7˜.0˜22,27˜]hentriaconta-1(30),2,4,7,9,22,24,26,28-nonaen-15-one bis(2,2,2-trifluoroacetate)] |  |  | IC50 [1, 6]: 0.007 µM; IC50 [2]: 0.005 µM
Cc1cc2[nH]ncc2c2c1CCCOC(=O)CC1CCCN(C1)c1nc(OC[C@@]34CCCN3C[C@H](F)C4)nc3c(F)c-2ncc13 (stereo partly shown) [Example 39] |  |  | IC50 [3, 5]: 0.016 µM; IC50 (AsPC-1 cells; first value of cell): 0.191 µM
O=C1OCCCc2c(Cl)cc3[nH]ncc3c2-c2ncc3c(nc(OC[C@@]45CCCN4C[C@H](F)C5)nc3c2F)N2CCC[C@]3(C2)C[C@H](C3)O1 [Example 323, (1R,3S)-11-chloro-33-fluoro-25-(((2R,7aS)-2-fluorotetrahydro-1H-pyrrolo[1,2-a]pyrrol-7a(5H)-yl)methoxy)-4,6-dioxa-14,15,20,24,26,28-hexaazaheptacyclo[26.3.1.1~1,3~.1~19,23~.0~10,18~.0~13,17~.0~22,27~]tetratriaconta-10,12,15,17,19(33),20,22,24,26-nonaen-5-one] |  |  | IC50 [3, 5]: 0.0305 µM; IC50 (AsPC-1 cells; first value of cell): 0.318 µM
O=C1OCCc2c(Cl)cc3[nH]ncc3c2-c2ncc3c(nc(OC[C@@]45CCCN4C[C@H](F)C5)nc3c2F)N2CCC[C@]3(C2)C[C@H](C3)O1 [Example 333, (1R,3S)-10-chloro-32-fluoro-24-(((2R,7aS)-2-fluorotetrahydro-1H-pyrrolo[1,2-a]pyrrol-7a(5H)-yl)methoxy)-4,6-dioxa-13,14,19,23,25,27-hexaazaheptacyclo[25.3.1.1~1,3~.1~18,22~.0~9,17~.0~12,16~.0~21,26~]tritriaconta-9,11,14,16,18(32),19,21,23,25-nonaen-5-one] | 0.314 µM | 0.127 µM | 
O[C@H]1C[C@@H]2CN(C1)c1nc(OC[C@@]34CCCN3C[C@H](F)C4)nc3c(F)c(ncc13)-c1c(c(Cl)cc3[nH]ncc13)CCCc1nc2no1 [Example 378, (18R,20S)-9-chloro-31-fluoro-25-(((2R,7aS)~2-fluorotetrahydro-1H-pyrrolo[1,2-α]pyrrol-7a(5H)-yl)methoxy)-15-oxa-5,6,16,22,24,26,30,33-octaazaheptacyclo[25.3.1.1~14,17~.1~18,22~.0~2,10~0~3,7~.0~23,28~]tritriaconta-1(31),2,4,7,9,14(33),16,23,25,27,29-undecaen-20-ol] |  |  | IC50 [3, 8]: 0.0477 µM; IC50 (AsPC-1 cells; first value of the cell): 0.782 µM
(17R,18R)-9-chloro-31-fluoro-25-(((2R,7aS)-2-fluorotetrahydro-1H-pyrrolo[1,2-α]pyrrol-7a(5H)-yl)methoxy)-19,33-dioxa-5,6,15,22,24,26,30-heptaazaheptacyclo[25.3.1.1~13,16~.1~18,22~.0~2,10~.0~3,7~.0~23,28~]tritriaconta-1(31),2,4,7,9,13,15,23,25,27,29-undecaen-17-ol [Example 395] |  | 0.198 µM | IC50 [1, 7]: 1.17 µM
(185)-9-chloro-31-fluoro-25-(((2R,7a.S)-2-fluorotetrahydro-LH-pyrrolo[1,2-α]pyrrol-7a(5H)-yl)methoxy)-15-oxa-5,6,22,24,26,30,33-heptaazaheptacyclo[25.3.1.1~13,16~1~18,22~0~2,10~.0~3,7~.0~23,28~]tritriaconta-1(31),2,4,7,9,13,16(33),23,25,27,29-undecaene [Example 388] |  |  | IC50 [1, 6]: 0.013 µM; IC50 [2]: 0.005 µM; IC50 [3]: 0.264 µM

More lines, main results first:

IC50 ([1]; TR-FRET binding) | IC50 [2, 4] | Compound | further results
0.013 µM | 0.006 µM | O=C1CCCCc2c(Cl)cc3[nH]ncc3c2-c2ncc3c(nc(OC[C@@]45CCCN4C[C@H](F)C5)nc3c2F)N2CCC3CCN1[C@H]3C2 (mixture of isomers) [Example 60] | IC50 [3, 5]: 0.012 µM
0.055 µM | 0.019 µM | O=C1CCCc2c(Cl)cc3[nH]ncc3c2-c2ncc3c(nc(OC[C@@]45CCCN4C[C@H](F)C5)nc3c2F)N2CCCC(CC1)C2 (mixture of isomers) [Example 236] | IC50 [3, 5]: 0.95 µM
0.008 µM | 0.005 µM | CC12COCCN(C1)c1nc(OC[C@@]34CCCN3C[C@H](F)C4)nc3cc(nnc13)-c1c(c(Cl)cc3[nH]ncc13)CCCOC(=O)O2 (single isomer, unassigned) [Example 362] | 
20.2 µM | 5.63 µM | CC12COCCN(C1)c1nc(OC[C@@]34CCCN3C[C@H](F)C4)nc3cc(nnc13)-c1c(c(Cl)cc3[nH]ncc13)CCCOC(=O)O2 (single isomer, unassigned) [Example 363] | 
0.006 µM | 0.005 µM | O=C1OCCCc2c(Cl)cc3[nH]ncc3c2-c2ncc3c(nc(OC[C@H]4CC[C@@H]5COCCN54)nc3c2F)N2CCOC[C@H](C2)O1 [Example 185, (26S)-18-chloro-32-fluoro-4-((6R,8aR)-hexahydro-1H-pyrrolo[2,1-c][1,4]oxazin-6-ylmethoxy)-23,25,28-trioxa-1,3,5,9,14,15-hexaazahexacyclo[24.4.1.1~6,10~.0~2,7~.0~11,19~.0~12,16~]dotriaconta-2,4,6,8,10(32),11,13,16,18-nonaen-24-one] | 
0.012 µM |  | O=C1OCCCc2c(Cl)cccc2-c2ncc3c(nc(OC[C@@]45CCCN4C[C@H](F)C5)nc3c2F)N2CCOC[C@H](C2)O1 [Example 186, (23S)-15-chloro-29-fluoro-4-(((2R,7aS)-2-fluorotetrahydro-1H-pyrrolo[1,2-a]pyrrol-7a(5H)-yl)methoxy)-20,22,25-trioxa-1,3,5,9-tetraazapentacyclo[21.4.1.1~6,10~.0~2,7~.0~11,16~]nonacosa-2,4,6,8,10(29),11,13,15-octaen-21-one] | IC50 [3, 5]: 0.2 µM; IC50 (AsPC-1 cells; first value of cell): 1.95 µM
